In patent publication US8211479B2, “Combinations of vasoactive substances with estrogens and their use in the treatment of female sexual dysfunctions” (Indena S.p.A., priority 2007, dated 2012):

Tests used:
PDE5A1 = PDE5A1 (Homo sapiens, UniProt O76074)
[1] = tested on: arterioles and precapillary arteries; details: topically administered; increasing blood flow and tissue perfusion; cited from earlier work

Row | Compound | inhibition of phosphodiesterase cGMP (in words) (PDE5A1) | vasokinetic action on arterioles and precapillary arteries (in words) [1]
1 | COc1ccc(-c2oc3c(CC=C(C)C)c(OCCO)cc(O)c3c(=O)c2O[C@@H]2O[C@@H](C)[C@H](O)[C@@H](O)[C@H]2O)cc1 [Compound 2, 7-O-hydroxyethyl-icariside II] | powerful inhibitors | 
2 | COc1ccc(-c2oc3c(CC=C(C)C)c(OCCO)cc(O)c3c(=O)c2OCCO)cc1 [Compound 1, 3,7-O-di-(2-hydroxyethyl)icaritin] | powerful inhibitors | 
3 | Visnadin |  | marked vasokinetic action
